The test system of one series is PARylation. As to the kind of experiment: PARylation inhibition in Lovo cells (H2O2 stimulated, anti-PAR antibody). It is filed as cell-based. To be noted: Homo sapiens, 25 mM H2O2. Here is the method: Experimental Example 4: Anti-Proliferation Experiment on PARylation
Experimental materials: test compounds; F12K medium; Lovo cells; Anti-Poly (ADP-ribose) mouse monoclonal antibody; FITC-labeled goat anti-mouse IgG; hydrogen peroxide; DAPI; PBS; methanol; acetone; Tween-20; skimmed milk powder; Envision multi-marker analyzer.
Day one: Lovo cells were plated on a plate at 60,000 cells/well, and then incubated overnight at 37° C./5% CO2.
Day two: reagents were prepared: • 1. Washing solution: Tween-20 was added to 1-fold PBS, and the final concentration of Tween-20 was 0.05%. • 2. Blocking solution: skimmed milk powder was added to the washing solution, and the final concentration of skimmed milk powder was 5%. • 3. Cell stationary solution: methanol and acetone were mixed in a ratio of 7:3.
Preparation of test compounds: compound intermediate plate 1: compounds were diluted to final concentrations of 10 μM to 0.13 nM with DMSO and PBS, and the concentration of DMSO was 1%. Compound intermediate plate 2: compounds were diluted to final concentrations of 10 μM to 0.13 nM with DMSO and PBS containing 50 mM hydrogen peroxide, and the concentration of DMSO was 1%.
1. Cell supernatant was removed, and compound was transferred from the compound intermediate plate 1 to the cell plate at 40 μL per well, and the mixture was incubated at 37° C. for 30 min.
Compound wells: compound, DMSO 1%;
Negative and positive controls: 1% DMSO added;
Blank controls: cell-free wells, PBS added.
2. After the incubation was completed, compound was transferred from the compound intermediate plate 2 to the cell plate at 40 μL per well, and the final concentration of H2O2 was 25 mM.
Compound wells: compound+25 mM H2O2
Positive and negative controls: 1% DMSO+25 mM H2O2
Blank controls: cell-free wells, PBS added
4. After the incubation was completed, the cell plate was washed once with PBS pre-cooled on ice and added with 100 μL of pre-cooled cell stationary solution per well. After the cell plate was left to stand at −20° C. for 10 min, the cell stationary solution was shaken off. 5. After being air-dried, the cell plate was washed with PBS at 200 μL per well, and then the PBS was discarded. 6. The cell plate was added with blocking solution at 100 μL per well and incubated at 25° C. for 30 min, after which the blocking solution was shaken off. 7. Anti-PAR antibody which was diluted in blocking solution at a ratio of 1:50, was added to the cell plate at 25 μL per well, and then the mixture was incubated at 25° C. for 60 min.
Negative control wells: blocking solution added at 25 μL/well
Blank control wells: blocking solution added at 25 μL/well
8. […] After removal of the liquid, corresponding fluorescence values were read on Envision: FITC: 480 nm and 530 nm; DAPI: 360 nm and 460 nm. […]

Series [1] can be described thus: Metabolic stability in liver microsomes, mouse. In kind it is in vitro ADME. The following applies: Mouse liver microsomes 0.5 mg/mL, 1 μM compound, NADPH, 37° C. Here is the method:
Experimental Example 7. Metabolic Stability in Liver Microsomes
Experimental objective: to test the metabolic stability of test compounds in liver microsomes of three species.
Experimental method: 1 μM test compound and a microsome (0.5 mg/mL) were incubated at 37° C. in the presence of an NADPH regeneration system; positive controls were testosterone (3A4 substrate), propylamine propiophenone (2D6 substrate) and diclofenac (2C9 substrate), and also at 37° C., a positive control was incubated with a microsome (0.5 mg/mL) in the presence of an NADPH regenerating system; the reaction was stopped by direct mixing of the sample with cold acetonitrile containing an internal standard at various time points (0, 5, 10, 20, 30 and 60 min); the compound and microsome were incubated for 60 min in the absence of an NADPH regenerating system; one parallel (n=1) was set at each time point; the samples were analyzed by LC/MS/MS; the concentration of the compound was characterized by the ratio of the analyte peak area to the internal standard peak area.

Series [2] concerns BRCA1-mutated MDA-MB-436 cells. The series can be described thus: Anti-proliferation experiment on MDA-MB-436 CTG cells. The following applies: 7 days incubation, CellTiter-Glo. In kind it is cell-based, human. As for the experimental part: Experimental Example 2: Anti-Proliferation Experiment on MDA-MB-436 CTG Cells
Experimental materials: test compounds; RPMI-1640 medium; fetal bovine serum; penicillin/streptomycin antibiotic; MDA-MB-436 cell line; Envision multi-marker analyzer (PerkinElmer).
MDA-MB-436 cells were seeded in a white 96-well plate by adding 80 μL of cell suspension (containing 3000 MDA-MB-436 cells) to each well. The cell plate was incubated in a CO2 incubator overnight.
Test compounds were serially 5-fold diluted to the 8th concentration with a multichannel pipette, i.e. from 2 mM to 26 nM, and a duplicate well experiment was performed. 78 μL of medium was added to a intermediate plate, 2 μL of each of serially diluted compounds was transferred to corresponding wells of the intermediate plate, and after mixing, the mixture was transferred to the cell plate at 20 μL per well. The cell plate was incubated in a CO2 incubator for 7 days. Another cell plate was provided for reading signal values on the day of compound addition and these signal values were used as Max values in data analysis. Promega CellTiter-Glo was added to this cell plate at 25 μL per well and the luminescence signals were stabilized by incubation for 10 min at room temperature. Readings were taken using a PerkinElmer Envision multi-marker analyzer.
Promega CellTiter-Glo was added to the cell plate at 25 μL per well and the luminescence signals were stabilized by incubation for 10 min at room temperature. Readings were taken using a PerkinElmer Envision multi-marker analyzer.
2. Data analysis: the original data was converted to inhibition using the equation (sample−Min)/(Max−Min)×100%, and the IC50 value was then curve fitted using four parameters (obtained from the “log(inhibitor) vs. response-variable slope” model in GraphPad Prism). Table 2 provides the inhibitory activity of the compounds disclosed herein against MDA-MB-436 cell proliferation.

The mark [3] stands for this setting: Homo sapiens, MDA-MB-436, 168 h.

`O=C1NOCc2c(-c3ccc(C4CCCN4)cc3)[nH]c3cc(F)cc1c23` (single isomer, unassigned) [Example 24_A]: the figures for the IC50 (with PARylation; in series [2]) were 23 nM and 9.6 nM, respectively. In addition, the “Residual content after 60 min of incubation” value (“Residual content after 60 min” for short) in series [1] worked out at 52.3%.

For `CC1(c2ccc(-c3[nH]c4cc(F)cc5c4c3CONC5=O)cc2F)CCCN1` (single isomer, unassigned) [Example 26_A], the IC50 was 25 nM in the series on PARylation and 8.4 nM in series [2]. Besides, the “Residual content after 60 min” value in series [1] came to 57.7%.

On to `CC1(c2ccc(-c3[nH]c4cccc5c4c3CONC5=O)cc2)CCCN1` (centres unmarked) [Example 6_A], for which the IC50 is 19 nM in the series with PARylation and 16.9 nM in series [2] (setting [3]). Further, the “Residual content after 60 min” value in series [1] stood at 45.6%.

In the case of `O=C1NOCc2c(-c3ccc(C4CCCN4)c(F)c3)[nH]c3cccc1c23` (centres unmarked) [Example 11_A], the IC50 amounted to 27 nM in the series with PARylation and 70.2 nM in series [2] (setting [3]). Further, in series [1], the “Residual content after 60 min” value was determined as 57.1%.

`CC1(c2ccc(-c3[nH]c4cc(F)cc5c4c3CONC5=O)cc2)CCCN1` (centres unmarked) [Example 25_A]: in series [1], the “Residual content after 60 min” value is 40.7%. In series [2] (setting [3]), this molecule returned an IC50 of 12.3 nM.

Values taken from patent US20220144850A1, “INDOLO HEPTAMYL OXIME ANALOGUE AS PARP INHIBITOR” (Chia Tai Tianqing Pharmaceutical Group Co., Ltd., priority 2019, published 2022).
